Measurements: publication PMC10840709 (Cell chemical biology, 2023)

Legend:
CSNK2A2 = CSNK2A2 (Homo sapiens, UniProt P19784); test: HotSpot […]-ATP kinase assay; format: biochemical
BRAF V600E = BRAF V600E (Homo sapiens, UniProt P15056, V600E); test: NanoBRET target engagement in HEK293 cells; format: cell-based
BRAF = BRAF (Homo sapiens, UniProt P15056); test: HotSpot […]-ATP kinase assay; format: biochemical
Sequence of BRAF (P15056 2-766): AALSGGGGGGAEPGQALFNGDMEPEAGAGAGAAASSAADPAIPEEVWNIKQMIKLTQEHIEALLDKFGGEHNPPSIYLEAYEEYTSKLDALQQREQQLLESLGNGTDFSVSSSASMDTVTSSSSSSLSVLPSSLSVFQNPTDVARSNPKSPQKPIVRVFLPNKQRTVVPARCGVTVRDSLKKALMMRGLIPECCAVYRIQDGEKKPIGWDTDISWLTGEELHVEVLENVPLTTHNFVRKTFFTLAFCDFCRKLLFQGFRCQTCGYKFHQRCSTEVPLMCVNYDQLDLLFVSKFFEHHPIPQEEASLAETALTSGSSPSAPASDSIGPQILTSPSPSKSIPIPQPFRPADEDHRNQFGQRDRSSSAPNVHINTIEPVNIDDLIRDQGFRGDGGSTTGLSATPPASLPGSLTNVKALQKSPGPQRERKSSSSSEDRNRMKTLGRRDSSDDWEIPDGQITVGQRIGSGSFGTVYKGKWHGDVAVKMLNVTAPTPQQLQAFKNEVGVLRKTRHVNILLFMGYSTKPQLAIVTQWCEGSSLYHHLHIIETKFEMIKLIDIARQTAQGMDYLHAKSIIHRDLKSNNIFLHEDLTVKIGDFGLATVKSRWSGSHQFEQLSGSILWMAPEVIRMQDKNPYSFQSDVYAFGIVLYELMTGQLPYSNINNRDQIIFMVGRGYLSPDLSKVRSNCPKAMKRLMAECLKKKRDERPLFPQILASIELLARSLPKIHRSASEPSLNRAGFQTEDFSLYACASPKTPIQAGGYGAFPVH

Sequence of BRAF V600E (P15056 2-766 V600E): as the sequence (P15056 2-766) above, with V599E counted along it
Sequence of CSNK2A2 (P19784 whole entry): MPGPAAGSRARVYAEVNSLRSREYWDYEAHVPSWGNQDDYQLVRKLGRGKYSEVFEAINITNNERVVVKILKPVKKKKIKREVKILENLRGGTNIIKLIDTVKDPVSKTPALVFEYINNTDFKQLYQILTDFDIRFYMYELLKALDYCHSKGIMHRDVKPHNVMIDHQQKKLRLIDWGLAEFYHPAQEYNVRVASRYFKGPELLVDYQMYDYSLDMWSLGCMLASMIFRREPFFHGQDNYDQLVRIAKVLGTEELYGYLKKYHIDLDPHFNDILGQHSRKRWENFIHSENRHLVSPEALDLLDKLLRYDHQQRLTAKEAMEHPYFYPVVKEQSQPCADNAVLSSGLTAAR

In the case of CCN1CCN(Cc2ccc(Nc3ncc(F)c(-c4cc(F)c5nc(C)n(C(C)C)c5c4)n3)nc2)CC1 [abemaciclib], the IC50 (CSNK2A2) is reported as 36.4 nM.
For Cc1ccc(NC(=O)c2ccc(CN3CC[C@H](N(C)C)C3)c(C(F)(F)F)c2)cc1Nc1nccc(-c2cncnc2)n1 [bafetinib], the IC50 (BRAF V600E) was 217 nM and the IC50 (BRAF) was 41.6 nM.
